Measured values reported in US12378263B2, “Modulators of sestrin-GATOR2 interaction and uses thereof” (Navitor Pharmaceuticals, Inc., priority 2015, dated 2025).

Columns and labels:
[1] = target: T1, GATOR2/Sestrin2 complexes (Homo sapiens, UniProt P58004); assay: In vitro PPI assay (Method 1): Sestrin2 bound to GATOR2, western blot, % activity relative to leucine; assay type: binding; details: compound at 25 μM; leucine 25 μM = 100% activity; duplicate
T1 construct: The Flag-WDR24/endogenous-Sestrin2 complex was isolated as follows; expressed in transfected cells; host or cells: HEK293T cells stably expressing FLAG-WDR24 (lentiviral vector pLJM60); Sestrin2 and the remaining GATOR2 subunits are endogenous
T1 sequence (P58004 1-480): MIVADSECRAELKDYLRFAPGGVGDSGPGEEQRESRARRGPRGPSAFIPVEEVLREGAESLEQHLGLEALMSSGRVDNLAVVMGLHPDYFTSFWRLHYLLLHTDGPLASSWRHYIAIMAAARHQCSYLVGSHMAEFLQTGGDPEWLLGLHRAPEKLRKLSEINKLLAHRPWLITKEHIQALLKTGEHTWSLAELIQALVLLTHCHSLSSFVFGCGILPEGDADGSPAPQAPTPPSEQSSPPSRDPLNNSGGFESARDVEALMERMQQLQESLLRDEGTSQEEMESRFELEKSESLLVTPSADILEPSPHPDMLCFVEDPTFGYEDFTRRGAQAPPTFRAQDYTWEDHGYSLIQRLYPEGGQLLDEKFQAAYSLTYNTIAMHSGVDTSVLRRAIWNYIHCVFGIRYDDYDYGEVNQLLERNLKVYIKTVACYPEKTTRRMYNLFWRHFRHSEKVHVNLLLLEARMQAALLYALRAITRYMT
Excerpt: This screening assay measured test compound activity in vitro on GATOR2/Sestrin2 complexes purified via immunoprecipitation of stably expressed FLAG-WDR24 from HEK293T cells. HEK293T cells (293 Ts) were engineered to stably express N-terminally tagged FLAG-WDR24 via transduction by lentivirus. Lentiviruses were produced by co-transfection of the lentiviral transfer vector pLJM60 with the […] into HEK-293T cells using the XTremeGene 9 transfection reagent (Roche Diagnostics). The media was changed 24 hours post-transfection to Dulbecco's Modified Eagle's media (DMEM) supplemented with 30% Inactivated Fetal Serum. The virus-containing supernatants were collected 48 and 72 hours after transfection and passed through a 0.45 μm filter to eliminate cells. Target cells in 6-well tissue culture plates were infected in media containing 8 μg/mL polybrene and spin infections were performed by centrifugation at 2,200 rpm for 1 hour. Twenty-four hours after infection, the virus was removed and the cells selected with the appropriate antibiotic. Cells were then grown in DMEM supplemented with 10% fetal bovine serum and antibiotics.
Seventy-two hours later, cells were placed in standard RPMI media formulated with no amino acids and supplemented with 5 mM Glucose (−AA RPMI, US Biological Life Sciences) for 1 hour then subsequently lysed in lysis buffer (40 mM HEPES, 1% Triton, 10 mM sodium β-glycerophosphate, 10 mM sodium pyrophosphate, 2.5 mM MgCl2 and protease inhibitors). […]
The resulting western blots were scanned and band intensities corresponding to Sestrin2 and FLAG-WDR24 were quantified using the LI-COR® imaging platform. […]
This screening assay measured compound activity in vitro on GATOR2/Sestrin2 complexes purified via immunoprecipitation of stably expressed Flag-WDR24 from HEK293T cells. […]

mTORC1 = assay: Cell-based mTORC1 activation (Method 2), western blot of phosphorylated S6 Kinase and 4EBP1 in HEK293T cells; details: shift relative to DMSO control, HEK293T cells after leucine starvation
Procedure: Briefly, 800,000 HEK293T cells were plated in each well of a 6-well plate in DMEM supplemented with 10% fetal bovine serum and antibiotics. […] Cells were then lysed, processed for SDS-PAGE and western blotting was performed with antibodies directed against the mTORC1 substrates phosphorylated S6 Kinase (Thr389) and phosphorylated 4EBP1 (Thr37/46) (Cell Signaling Technology) and loading controls (beta-actin, Santa Cruz Biotechnology) as described in Kang, S. A., et al. Science 341(6144): 364-374 (2013). The intensity of the bands corresponding to the phosphorylated substrates were then normalized to the actin band using the LI-COR® imaging platform.

Sestrin2 = target: T2, Sestrin2 (Homo sapiens, UniProt P58004); assay: Indirect ligand binding assay (ILBA, Method 7), immunoprecipitation with CST anti-Sestrin2 antibody; details: crude lysate of amino acid starved human cell line, 1 hour incubation
T2 construct: crude lysate generated from a human cell line; endogenous in cells; host or cells: Unnamed human cell line (crude lysate)
T2 sequence (P58004 1-480): T1 sequence (P58004 1-480)
Procedure: Conversely, compounds that destabilized Sestrin2 as measured by thermal shift assay increased the affinity of the CST antibody for non-denatured Sestrin2. […] In one version, the assay was performed with crude lysate generated from a human cell line after a 1-hour period of amino acid starvation (cells are lysed in 1% Triton, 10 mM beta-glycerol phosphate, 10 mM sodium pyrophosphate, 40 mM HEPES [pH 7.4], 150 mM NaCl and 2.5 mM MgCl2). […] After compound incubation, samples were subjected to immunoprecipitation with the CST anti-Sestrin2 antibody for 1.5 hours followed by a 30-minute incubation with protein-A sepharose as described in L. Chantranupong, et al., Cell Reports 9:1-8 (2014). The sepharose conjugated antibody-protein complex was precipitated via centrifugation and the flow-through was subjected to a second round of immunoprecipitation with a rabbit polyclonal anti-Sestrin2 antibody (Protein Tech, #10795-1-AP) to determine that total Sestrin2 protein levels between samples were equal. SDS-PAGE was performed with the immunoprecipitation samples followed by western-blot with the mouse monoclonal anti-Sestrin2 antibody from SIGMA (cat #WH0083667M3). […] This version of the assay also measured increased instability of Sestrin2 induced by incubation with compounds.

SMILES	Cell-Based mTORC1 Activation (mTORC1; 100 μM)	also measured
CC(C)C[C@H](N)S(=O)(=O)O [Example I-157]		Activity of Leucine: % Activity [1]: B to C
CC(C)C(F)(F)[C@@H](N)C(=O)O [Example I-47, (S)-2-amino-3,3-difluoro-4-methylpentanoic acid]	D (a shift relative to DMSO control of 0.5 to 2 fold)	
NC(CCCC(F)(F)F)C(=O)O (stereo not drawn) [Example I-42]	D to F	
CC(C)C(F)(F)[C@H](N)C(=O)O [Example I-46, (R)-2-amino-3,3-difluoro-4-methylpentanoic acid]	D (a shift relative to DMSO control of 0.5 to 2 fold)	
CC(C)(C)C[C@H](N)C(=O)O [Example I-43]	D to E	
CC(C)C[C@H](N)C(=O)O [Example I-44]	D (a shift relative to DMSO control of 0.5 to 2 fold)	
N[C@@H](CC1CCC1)C(=O)O [Example I-37]	E to F	
CC(C)C[C@H](N)C(=O)NC(C)(C)C [Example I-165]		Activity of Leucine: % Activity [1]: A to C
CC(C)C[C@H](N)C(=O)O [leucine]		decrease in the intensity of the band corresponding to Sestrin2 (CST antibody immunoprecipitation) (Sestrin2): ≥ 50%
CC(C)CCC(N)C(=O)O (stereo not drawn) [Example I-41]		Activity of Leucine: % Activity [1]: A (% activity relative to leucine of ≥40%)
COC(=O)[C@@H](N)CC(C)C [Example I-168]	D to E	
N[C@H](CCCC(F)(F)F)C(=O)O [Example I-9, (R)-2-amino-6,6,6-trifluorohexanoic acid]	E (a shift relative to DMSO of 2.1-5 fold)	
CC(C)C[C@@H](N)B1OC(C)(C)C(C)(C)O1 [Example I-10]		Cell-Based mTORC1 Activation (mTORC1; 30 and 100 μM): D (a shift relative to DMSO control of 0.5 to 2 fold)
CC(C)C[C@H](N)C(N)=O.Cl [Example I-23]	D to F	
C[C@H](CC(N)C(=O)O)C(F)(F)F (stereo in doubt) [Example I-167, (2R,4R)-2-amino-5,5,5-trifluoro-4-methylpentanoic acid]	D to F	
